Assay results from patent US9492471B2, “Methods of treating a disease or disorder associated with Bruton'S Tyrosine Kinase” (Celgene Avilomics Research, Inc., priority 2013, dated 2016).

Legend:
patients with CLL = test: Compound 1 besylate monotherapy in CLL patients; type: in vivo, human
Environmental stability = type: physicochemical
[1] = monotherapy, as of Sep. 11, 2012

| Compound | maximum tolerated dose (MTD) (patients with CLL; single agent, up to 750 mg PO QD) | patients with CLL with stable disease continuing on treatment (patients with CLL; [1]) | patients with early increases in absolute lymphocyte counts (ALC) (patients with CLL; [1]) | patients with reductions in lymph node size (patients with CLL; [1]) | environmental instabilities (heat, acid, base) (Environmental stability) |
| --- | --- | --- | --- | --- | --- |
| C=CC(=O)Nc1cccc(Nc2nc(Nc3ccc(OCCOC)cc3)ncc2F)c1 [Compound 1, N-(3-(5-fluoro-2-(4-(2-methoxyethoxy)phenylamino)pyrimidin-4-ylamino)phenyl)acrylamide] | has not yet been reached | – | – | – | – |
| C=CC(=O)Nc1cccc(Nc2nc(Nc3ccc(OCCOC)cc3)ncc2F)c1.O=S(=O)(O)c1ccccc1 [N-(3-(5-fluoro-2-(4-(2-methoxyethoxy)phenylamino)pyrimidin-4-ylamino)phenyl)acrylamide benzenesulfonic acid salt] | – | 35 out of 43 | 28 of 33 | 15 of 23 | no environmental instabilities |
